#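 Cells were grown in 96-well plates and exposed to each compound for 48 hours at five concentrations; endpoints were interpolated linearly between bracketing concentrations, or set to the highest concentration if not reached. The concentration for 50% growth inhibition is given as GI50. TGI marks complete inhibition of growth.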
# How the values were obtained:
# Test in all cases: DTP human tumour cell line panel, 48 h
# HOP-92 NSCLC = test system: HOP-92 NSCLC
# MOLT-4 leukemia = test system: MOLT-4 leukemia
# ACHN renal = test system: ACHN renal
# NCI/ADR-RES ovarian = test system: NCI/ADR-RES ovarian
# NCI-H522 lung = test system: NCI-H522 lung
# UO-31 renal = test system: UO-31 renal
# A549 NSCLC = test system: A549 NSCLC
# SN12C renal = test system: SN12C renal
# HS 578T breast = test system: HS 578T breast
# DU-145 prostate = test system: DU-145 prostate
SMILES,GI50 (HOP-92 NSCLC) [µM],TGI (HOP-92 NSCLC) [µM],GI50 (MOLT-4 leukemia) [µM],TGI (MOLT-4 leukemia) [µM],GI50 (ACHN renal) [µM],TGI (ACHN renal) [µM],GI50 (NCI/ADR-RES ovarian) [µM],TGI (NCI/ADR-RES ovarian) [µM],GI50 (NCI-H522 lung) [µM],TGI (NCI-H522 lung) [µM],GI50 (UO-31 renal) [µM],TGI (UO-31 renal) [µM],GI50 (A549 NSCLC) [µM],TGI (A549 NSCLC) [µM],GI50 (SN12C renal) [µM],TGI (SN12C renal) [µM],GI50 (HS 578T breast) [µM],TGI (HS 578T breast) [µM],GI50 (DU-145 prostate) [µM],TGI (DU-145 prostate) [µM]
Nc1nc(Sc2ccc([N+](=O)[O-])c3nonc23)c2ncn(C3OC(CO)C(O)C3O)c2n1 (stereo not given),0.514,18.1,0.325,> 37.5,0.609,23.8,0.47,> 73.2,0.64,14.2,0.902,43.6,4.27,> 100,1.48,21.8,7.89,46.3,0.554,27.3
COc1cccc(S(=O)(=O)NC2=NCCN2C(=S)SN2CCn3c2nsc3=S)c1,44.4,> 100,32.5,> 100,15.6,29.8,52.4,> 100,20.1,40.9,23.3,49.1,> 100,> 100,36.1,> 100,90.3,> 100,44.2,> 100
NC(=O)c1cn(C2CC(O)C(CO)O2)c2ncnc(N)c12 (stereo not given),0.429,13.6,0.611,> 100,3.62,> 58.1,2,24.2,4.27,16.2,1.84,18.5,5.2,41.1,1.56,31.1,2.27,17.3,1.41,10.4
CCOC(=O)c1c(NN2CCN(CC(F)(F)F)CC2)oc(/C=C2\C=Nc3ncccc32)c1O,12.9,40.9,2.79,9.37,5.85,77.4,19.3,57.8,1.05,11.1,5.11,28.9,5.2,49.1,4.26,42.6,0.913,6.72,4.75,23.7
Cn1cnc([N+](=O)[O-])c1S(=O)(=O)Oc1ccc(Cl)cc1,1.61,3.37,2.25,5.26,1.8,3.28,11.7,64.3,1.82,4.22,2.36,8.75,58.2,> 100,13.2,30.8,19.6,68.1,4.75,17.8
O=C(Nc1ccc(Cl)c(C(F)(F)F)c1)Nc1ccc(-c2cccnc2)cc1N1CCC(CO)CC1,2.22,5.6,2.57,> 100,3,> 100,2.85,9.11,1.73,3.43,2.43,> 100,3.45,23.8,3.46,19,2.79,8.46,3.74,> 100
CC(C)(C)c1cc(C[P+](c2ccccc2)(c2ccccc2)c2ccccc2)cc(C(C)(C)C)c1O,0.155,0.555,1.41,5.19,2.63,10.8,9.12,33.8,0.33,1.91,2.28,7.14,0.392,11,0.404,2.31,0.51,17.1,0.593,11.8
COc1ccc(C2c3ccc4ccccc4c3Oc3ncn(CCCn4ccnc4)c(=N)c32)cc1OC (stereo not given),1.3,6.64,2.59,6.25,4.42,16.2,3.96,17.4,1.87,4.36,3.75,16.1,3.75,13.8,3.64,17.7,2.26,7.46,5.49,18.2
COc1ccc2c(n1)Sc1nc3ccccc3nc1N2,–,> 100,–,35.1,–,> 100,–,> 100,–,> 100,–,89.1,–,> 100,–,71.6,–,> 100,–,> 100
COc1cc2c3c(n(CCCN=[N+]=[N-])c(=O)c2cc1OC)-c1ccc(F)cc1C3=O,2.27,8.15,2.7,28.5,3.8,> 100,7.44,> 100,4.89,> 100,5.14,> 100,48,> 100,8.26,> 100,> 100,> 100,4.19,> 100
Oc1ccc(N=Nc2ccc(Br)cc2)c(O)c1,1.1,6.96,1.94,5.56,5.44,37.5,3.07,9.29,1.74,6.53,2.27,15.6,3.19,17.9,6.54,50,2.2,6.77,3.43,17.9
OCC1OC(N2C=C(c3nc4ccccc4s3)C3C=CC=CC32)C(O)C(O)C1O (stereo not given),9.51,30.2,36.5,> 50,14.7,> 50,> 50,> 50,> 50,> 50,24.8,> 50,18.7,> 50,28.8,> 50,20.1,> 50,20.6,> 50
CC(C)[C@@]12C[C@@H](OC(=O)C3CO3)[C@@](C)(O1)[C@@H]1CC[C@@H](C)[C@H]1[C@@H]2OC(=O)/C=C/c1ccccc1 (stereo not given in full),12.4,27.7,24.7,> 100,2.34,7.79,10.8,37.4,17.4,37.3,1.76,5.57,20.4,49.5,11.9,32.5,0.354,3.11,26.4,72.9
O=C(Nc1ccc(I)cc1F)c1cc(Br)ccc1O,0.162,0.516,1.39,5.6,0.592,11.4,0.613,4.5,0.348,4.44,0.346,2.24,2.81,> 100,0.416,4.09,0.346,2.62,0.865,> 67.8
COc1ccc(Nc2ncc(I)c(NCCCNC(=O)C3CCC3)n2)cc1,3.04,29.2,4.32,> 100,3.65,> 100,12,> 100,20.9,> 100,0.73,3.85,4.6,24.6,1.46,> 100,2.94,13.2,9.21,> 100
COc1cc(CSc2nc3ccc(Cl)cc3c(=O)n2Cc2ccccc2)cc(OC)c1OC,1.93,9.16,4.41,> 100,4.23,34.2,2.77,> 100,0.652,4.54,4.4,> 100,4.03,> 100,5.2,> 100,1.63,14.5,4.46,> 100
O=C1CN=C(c2ccc[nH]2)c2cc(Cl)ccc2N1,12.2,> 100,> 100,> 100,> 100,> 100,57.4,> 100,25.2,> 100,> 100,> 100,> 100,> 100,> 100,> 100,> 100,> 100,> 100,> 100
CCOC(=O)c1ccc(N2NC(=O)/C(=C/c3ccc([N+](=O)[O-])o3)C2=O)cc1,15.6,31.8,11.3,53.1,8.27,20.8,25.9,> 71.8,4.18,8.53,5.64,13.8,> 44.7,> 60.6,27.5,> 55.8,> 45.6,> 75.1,18,32.3
CCc1cc2c(c(OCC(F)(F)F)c(C(=O)NC3CCN(C(=O)CO)CC3)n2C)c(=O)n1CC(=O)c1ccccc1,> 62.4,> 100,37.2,> 100,> 64.5,> 100,> 68.4,> 100,> 95.9,> 100,45.3,> 100,92.2,> 100,> 100,> 100,34.4,> 100,> 100,> 100
Cc1cccc2c(=O)c3c(sc12)c(NCCCNCCO)nc1ccccc13,1.21,3.24,1.13,2.62,1.49,2.81,1.73,3.26,1.65,3.54,1.19,2.55,1.06,2.64,1.56,3.12,1.63,3.62,1.57,2.96
CCn1nc(C2CCN(C(=O)CCO)CC2)nc1-c1cnc(N)c(-c2nnc(C(C)(C)C)o2)n1,0.208,> 100,2.33,39.2,3.92,> 100,14.6,> 100,15.3,63.5,0.966,51.7,2.26,> 100,6.34,> 100,0.836,57,16.7,> 100
Cc1nnn(C)c1-c1cnc2c3ccc(C(C)(C)O)cc3n([C@H](c3ccccc3)C3CCOCC3)c2c1,< 0.01,22.7,0.197,> 100,0.0243,14.9,0.26,37.8,< 0.01,20.9,< 0.01,13.4,0.037,31.9,1.4,> 74.9,< 0.01,> 100,11.2,> 100
COc1ccc(C(=O)/C=C/c2cc(-c3ccc(OC)c(OC)c3)n[nH]2)cc1OC,1.97,8.12,2.2,> 100,1.59,3.83,3.43,33.1,1.69,3.9,1.5,3.8,2.25,10.2,1.92,4.82,3.76,> 100,1.64,4.8
c1cc(OCCN2CCCC2)ccc1CNc1ccc2nc(CCC3CCCCC3)[nH]c2c1,0.471,2.25,1.76,5.81,2.29,5.99,2.76,10.7,2.1,4.47,1.42,2.75,2.47,7.52,2.08,8.21,1.62,4.53,3.43,12.4
CN1CCc2ccccc2C1Cc1ccccc1NC(=O)c1sc2ccccc2c1Cl (stereo not given),–,> 100,–,> 100,–,> 100,–,> 100,–,> 100,–,> 100,–,> 100,–,> 100,–,> 100,–,> 100

# — PubChem BioAssay (NCI)
